In patent publication US6375928B1, “Neutrophil stimulating peptides” (Peptech Limited, priority 1990, dated 2002):
Entries after “also recorded” stand apart in the source; their conditions may differ.

Experiments:
[1] = test system: human neutrophils; experiment: Chemiluminescence assay: priming of neutrophils for F-met-leu-phe response (respiratory burst); type: cell-based; conditions: for lucigenin dependent chemiluminescence, peak of response: 20 min pretreatment before f-met-leu-phe; for chemiluminescence (repeat experiment, Table 3): peptide + fMLP
Method: Purified human neutrophils were pretreated with peptide for 20 minutes before the addition of f-met-leu-phe. The lucigenin dependent chemiluminescence response, which reflects superoxide production, was then measured. The results obtained are set out in Table 2 and are expressed as mV of lucigenin dependent chemiluminescence and represent the maximal cell activity attained.
Results are expressed as mV of lucigenin dependent chemiluminescence and represent peak of response i.e. the maximal cell activity attained.

[2] = test system: neutrophils; experiment: Neutrophil degranulation: Vitamin B12 binding protein release (specific granules); type: cell-based; conditions: for Vitamin B12 Binding Protein, Exp. 1 / Vitamin B12 Binding Protein, Exp. 2 / Vitamin B12 Binding Protein, Exp. 3 / Vitamin B12 Binding Protein, Exp. 4: in the presence of CytoB
[3] = test system: neutrophils; experiment: Neutrophil random migration out of wells in agarose; type: cell-based
From the text: Migration of cells is an important property by which cells reach infection sites. Their accumulation at these sites is also dependent on the capacity of inflammatory mediators to inhibit their migration out of the sites.

[4] = test system: neutrophils; experiment: Chemotactic properties, neutrophil migration under agarose; type: cell-based
Method: 5 μl of neutrophils (2×10^5 cells) were added to the inner well, with chemotactic agent or control medium added to the outer wells. Migration at various time intervals was then measured.

[5] = test system: neutrophils; experiment: Superoxide formation, cytochrome reduction assay; type: cell-based
From the text: The effect of peptides 308 and 309 (SEQ ID NOs. 10 & 11) on superoxide formation was examined by the cytochrome reduction assay, according to the procedure of Ferrante, 1989 (Infection and Immunity), 57: 2115-2122). The results, expressed as n moles of O2/5×10^5 cells as set out in Table 6.

[6] = test system: neutrophils; experiment: Neutrophil degranulation: β-glucuronidase release (azurophilic granules); type: cell-based; conditions: for β-glucuronidase release, Exp. 1 / β-glucuronidase release, Exp. 2 / β-glucuronidase release, Exp. 3 / β-glucuronidase release, Exp. 4: in the presence of CytoB
[7] = test system: human neutrophils; experiment: Chemiluminescence assay: priming of neutrophils for F-met-leu-phe response (respiratory burst); type: cell-based; conditions: peptide alone
[8] = test system: Pseudomonas aeruginosa; experiment: Pseudomonas experiment: chronic lung infection in mice; type: in vivo; conditions: female Swiss mice, chronic Pa lung infection; 0.5 mg peptide tail-vein each day for 3 days from day 12; n=4; p<0.05 vs carrier (5.25)
Method: Chronic lung infection by Pseudomonas aeruginosa (Pa) is common in cystic fibrosis. […] The present inventors reasoned that pre-sensitising neutrophils with TNF intravascularly, prior to their entry into the lung, may overcome this problem. […] The ability of i.v.-injected 419 (SEQ ID NO. 18) to protect against chronic lung injury induced by Pseudomonas was tested. Chronic lung infections were established in 120 14 week female Swiss mice by introducing the bacteria suspended in agar beads (<200 μm diameter) into the lung. Mice were anaesthetised and 30 μl of bead suspension introduced via a polyethylene cannula into the right bronchus through a small incision between the tracheal rings. After recover, animals (n=20) developed a chronic infection followed for at least 10-14 days. Control animals included: sham-operated (n=2); and those inoculated with sterile beads (n=6) or with beads containing fresh, heat-killed Pa (n=5).

[9] = test system: P. falciparum; experiment: Ability of peptide-stimulated neutrophils to inhibit in vitro growth of malaria parasites; type: cell-based; conditions: neutrophils incubated with peptide 37° C. 30 minutes; thawed normal, normal and immune serum (FIG. 5)
Method: The ability of neutrophils stimulated with peptides 418 and 419 (SEQ ID Nos. 17 & 18) to inhibit in vitro growth of malaria parasites was assessed.
Briefly, neutrophils were incubated with peptides 418 and 419 (SEQ ID NOs. 17 & 18) at 37° C. for 30 minutes and then washed with HBSS. The neutrophils were then added to a culture of red blood cells infected with P. falciparum. The cultures were then examined microscopically for evidence of parasite death.

[10] = test system: ICAM; experiment: Induction of ICAM on human umbilical vein endothelial cells (HUVEC); type: cell-based; conditions: peptide 1 mg, four hours at 37° C. (FIG. 7)
Method: Peptide 419 (SEQ ID NO. 18) was tested for its ability to induce ICAM using the following procedure.
The cells were then washed extensively with PBS containing Ca^++ and Mg^++ and fixed ([…] 0.025% guteraldehyde, overnight, 4° C.). The cells were again washed, and incubated with anti-ICAM antibody (84H10) for 1 hr at room temperature. The cells were washed and incubated for a further 1 hr at room temperature in the presence of rabbit anti-mouse Ig-HRP. Surface expression of Icam was then quantitated using the ABTS substrate by absorption at OD405 nm.

[11] = test system: monocytes; experiment: Priming of monocytes for a respiratory burst (chemiluminescence); type: cell-based; conditions: 10^6 monocytes/tube/ml, 30 min pre-incubation 37° C.
Method: Peptide 419 (SEQ ID NO. 18) was assayed for its ability to prime monocytes for a respiratory burst. This assay was conducted essentially as described above for neutrophils except that the cells were cultured for 24 hours prior to assay.

[12] = peptide 100 μg/10^6 cells (or HBSS) + fMLP
[13] = peptide 100 μg/10^6 cells, no fMLP
[14] = towards agent well, 1 × 10^−7 M fMLP, peptide, or 10^3 U/ml TNFα, 2×10^5 neutrophils
[15] = with fMLP, 419 100 μg/10^6 monocytes, 50 U TNF or no pre-treatment
[16] = without fMLP, 419 100 μg/10^6 monocytes or 50 U TNF

For “G L Y L I Y S Q V L F K G Q G (GLYLIYSQVLFKGQG) [Peptide 308]”, the “neutrophil stimulating activity / stimulation of neutrophil respiratory burst (in words)” value [1] was “neutrophil stimulating activity”, the “priming of neutrophils for the respiratory burst associated with f-met-leu-phe treatment (in words)” value [1] was “found to prime human neutrophils for the respiratory burst; also recorded: particularly potent primer of neutrophils” and the “lucigenin dependent chemiluminescence, peak of response” value (“lucigenin dependent chemiluminescence” for short) ([1]; peptide 1 μg/10^6 cells) was 0.91 mV. For the same substance, the “lucigenin dependent chemiluminescence” value ([1]; peptide 10 μg/10^6 cells) was 4.80 mV, the “lucigenin dependent chemiluminescence” value ([1]; peptide 100 μg/10^6 cells) was 49.52 mV and the “chemiluminescence (repeat experiment, Table 3)” value ([1]; 10 μg/10^6 cells) was 2.74 mV. For the same substance, the “chemiluminescence (repeat experiment, Table 3)” value ([1]; 100 μg/10^6 cells) was 28.56 mV, the “release from specific granules (Vitamin B12 binding protein), in words” value ([2]; absence of fMLP) was “decreased the release” and the “Vitamin B12 Binding Protein, Exp. 1” value [2, 12] was 35.81. For the same substance, the “Vitamin B12 Binding Protein, Exp. 2” value [2, 12] was 27.59, the “Vitamin B12 Binding Protein, Exp. 3” value [2, 12] was 26.55 and the “Vitamin B12 Binding Protein, Exp. 4” value [2, 12] was 21.51. The “Vitamin B12 Binding Protein, Exp. 1” value [2, 13] was 2.00, the “Vitamin B12 Binding Protein, Exp. 2” value [2, 13] was 2.08 and the “Vitamin B12 Binding Protein, Exp. 3” value [2, 13] was 5.70. For the same substance, the “Vitamin B12 Binding Protein, Exp. 4” value [2, 13] was 2.25, the “release from specific granules (Vitamin B12 binding protein), in words” value ([2]; presence of fMLP) was “still apparent following stimulation with fMLP” and the “effect on neutrophil random migration (in words)” value [3] was “potent inhibitors of neutrophil migration”. For the same substance, the “Inhibition of Migration” value ([3]; 10 μg/10^6 cells) was 0%, the “Inhibition of Migration” value ([3]; 100 μg/10^6 cells) was 100% and the “chemotactic properties (in words)” value [4] was “strongly chemotactic”. The “Migration distance at 1.5 h, Agent” value [4, 14] was 0.66 mm, the “Migration distance at 2.5 h, Agent” value [4, 14] was 1.41 mm and the superoxide formation ([5]; peptide + fMLP, 10 μg/5 × 10^5 cells) was 5.00 n moles of O2/5×10^5 cells. The superoxide formation ([5]; peptide + fMLP, 100 μg/5 × 10^5 cells) was 6.729 n moles of O2/5×10^5 cells, the superoxide formation ([5]; peptide alone, 10 μg/5 × 10^5 cells) was 2.78 n moles of O2/5×10^5 cells and the superoxide formation ([5]; peptide alone, 100 μg/5 × 10^5 cells) was 4.892 n moles of O2/5×10^5 cells. The “release from azurophilic granules (β-glucuronidase), in words” value ([6]; absence of fMLP) was “decreased the release”, the “β-glucuronidase release, Exp. 1” value [6, 12] was 17.57% and the “β-glucuronidase release, Exp. 2” value [6, 12] was 28.86%. The “β-glucuronidase release, Exp. 3” value [6, 12] was 17.86%, the “β-glucuronidase release, Exp. 4” value [6, 12] was 18.20% and the “β-glucuronidase release, Exp. 1” value [6, 13] was 0.8%. The “β-glucuronidase release, Exp. 2” value [6, 13] was 0.65%, the “β-glucuronidase release, Exp. 3” value [6, 13] was 2.76% and the “β-glucuronidase release, Exp. 4” value [6, 13] was 0.72%. For the same substance, the “release from azurophilic granules (β-glucuronidase), in words” value ([6]; presence of fMLP) was “still apparent following stimulation with fMLP”, the “chemiluminescence (repeat experiment, Table 3)” value ([7]; 10 μg/10^6 cells) was 1.00 mV and the “chemiluminescence (repeat experiment, Table 3)” value ([7]; 100 μg/10^6 cells) was 11.76 mV.
“P S T H V L I T H T I (PSTHVLITHTI) [Peptide 419]” was tested, and the “percentage peripheral consolidation, mean (se)” value [8] was 0.25 (se 0.25) %, the “neutrophil stimulating activity / stimulation of neutrophil respiratory burst (in words)” value [1] was “neutrophil stimulating activity” and the “Chemiluminescence mean + sem” value ([1]; 100 μg peptide, priming neutrophils for respiratory burst) was 18.6 ± 0.5 mV. For the same substance, the “inhibition of in vitro growth of malaria parasites by stimulated neutrophils (in words)” value [9] was “more effective than TNF”, the “induction of ICAM surface expression (in words)” value [10] was “does not induce the cell adhesion molecule ICAM” and the “Peak mV Chemiluminescence, Mean ± S.D.” value [11, 15] was 240.0 ± 32.527 mV. For the same substance, the “Peak mV Chemiluminescence, experiment 1” value [11, 15] was 263.0 mV, the “Peak mV Chemiluminescence, experiment 2” value [11, 15] was 217.0 mV and the “Peak mV Chemiluminescence, Mean ± S.D.” value [11, 16] was 3.385 ± 1.365 mV. The “Peak mV Chemiluminescence, experiment 1” value [11, 16] was 2.42 mV and the “Peak mV Chemiluminescence, experiment 2” value [11, 16] was 4.35 mV.
